Test results reported in ChEMBL document CHEMBL1201862, “PubChem BioAssay data set” (2004).
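In this assay, cells in 96-well plates receive the compound at five concentrations for 48 hours. Endpoints are linearly interpolated between the surrounding concentrations. GI50 is the concentration that inhibits growth by half.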 The source made the active and inactive calls. Rule as the data show it: active = GI50 up to about 1.1 µM and inactive = higher.

Columns and labels:
Test in all cases: NCI anticancer screen, dose series, 48 h
EKVX = test system: EKVX
HCT-116 = test system: HCT-116
HOP-92 = test system: HOP-92
LXFL 529 = test system: LXFL 529
M14 = test system: M14
MOLT-4 = test system: MOLT-4
NCI-H23 = test system: NCI-H23
OVCAR-8 = test system: OVCAR-8
RXF 393 = test system: RXF 393
SF-539 = test system: SF-539
SK-OV-3 = test system: SK-OV-3
SW-620 = test system: SW-620
TK-10 = test system: TK-10
UACC-257 = test system: UACC-257
UO-31 = test system: UO-31
KM-20L2 = test system: KM-20L2
Hs-578T = test system: Hs-578T
SR = test system: SR
T47D = test system: T47D

Row | Compound | GI50 (EKVX) | GI50 (HCT-116) | GI50 (HOP-92) | GI50 (LXFL 529) | GI50 (M14) | GI50 (MOLT-4) | GI50 (NCI-H23) | GI50 (OVCAR-8) | GI50 (RXF 393) | GI50 (SF-539) | GI50 (SK-OV-3) | GI50 (SW-620) | GI50 (TK-10) | GI50 (UACC-257) | GI50 (UO-31) | GI50 (KM-20L2) | GI50 (Hs-578T) | GI50 (SR) | GI50 (T47D)
1 | C=CCCCCCCCC(O)C1C[C@H](O)C(CCCCC)O1 (some centres undefined) | 19.5 µM (inactive) | 17.6 µM (inactive) | 15.7 µM (inactive) | 15.5 µM (inactive) | 17.7 µM (inactive) | 17.7 µM (inactive) | 16.9 µM (inactive) | 19.9 µM (inactive) | 17.1 µM (inactive) | 15.8 µM (inactive) | 20.4 µM (inactive) | 21.1 µM (inactive) | 19 µM (inactive) | > 10 µM (inactive) | 17.8 µM (inactive) |  |  |  | 
2 | NC(=O)c1ccccc1NC(=O)C(=O)Cc1nc2ccccc2nc1O | > 100 µM (inactive) | > 100 µM (inactive) | 98.6 µM (inactive) | > 100 µM (inactive) | > 100 µM (inactive) | > 100 µM (inactive) | > 100 µM (inactive) | 50 µM (inactive) | > 100 µM (inactive) | 48.5 µM (inactive) | > 100 µM (inactive) | > 100 µM (inactive) | > 100 µM (inactive) | > 100 µM (inactive) | > 100 µM (inactive) | > 100 µM (inactive) |  |  | 
3 | CCN(CC)CCN1c2ccccc2Sc2ccc3ccccc3c21 | 6.37 µM (inactive) | 10.8 µM (inactive) | 3.37 µM (inactive) |  | 3.01 µM (inactive) | 3.74 µM (inactive) | 15.5 µM (inactive) | 12.6 µM (inactive) | 2.12 µM (inactive) | 13.6 µM (inactive) | 15.8 µM (inactive) | 11.4 µM (inactive) | 1.67 µM (inactive) | 7.69 µM (inactive) | 5.81 µM (inactive) |  | 13.5 µM (inactive) | 4.94 µM (inactive) | 2.01 µM (inactive)
4 | CC(C)C(NCc1c2ccccc2[n+]([O-])c2ccccc12)C(=O)O (centres undefined) | > 100 µM (inactive) | 25.3 µM (inactive) | 1.8 µM (inactive) | 35.1 µM (inactive) | > 100 µM (inactive) | 26.2 µM (inactive) | 44.1 µM (inactive) | 70 µM (inactive) |  |  | > 100 µM (inactive) | 48.6 µM (inactive) | > 100 µM (inactive) | > 100 µM (inactive) | 26.7 µM (inactive) | 43.8 µM (inactive) |  |  | 
5 | C[C@H]1/C(=C/C(=O)OCCN(C)C)CC[C@H]2[C@H]1C(=O)C[C@H]1C(C)(C)[C@@H](O)CC[C@]21C | > 100 µM (inactive) | > 100 µM (inactive) | > 100 µM (inactive) |  | > 100 µM (inactive) | > 100 µM (inactive) | > 100 µM (inactive) | > 100 µM (inactive) | > 100 µM (inactive) | > 100 µM (inactive) | > 100 µM (inactive) | > 100 µM (inactive) | > 100 µM (inactive) | > 100 µM (inactive) | > 100 µM (inactive) |  | > 100 µM (inactive) | > 100 µM (inactive) | > 100 µM (inactive)
6 | CCOC(=O)NC(Nc1ccc(F)c(F)c1)(C(=O)OCC)C(F)(F)F (centres undefined) | > 100 µM (inactive) | > 40.8 µM (inactive) | > 100 µM (inactive) |  | 0.826 µM (active) | > 100 µM (inactive) | > 100 µM (inactive) | 46 µM (inactive) | > 100 µM (inactive) | > 100 µM (inactive) | > 100 µM (inactive) | 17.4 µM (inactive) | > 100 µM (inactive) | > 100 µM (inactive) | > 65.6 µM (inactive) |  | > 25.9 µM (inactive) | > 100 µM (inactive) | 18.2 µM (inactive)
7 | COC1(OC)C=CC2C1C1C=CC2C1(OC)OC (centres undefined) | > 100 µM (inactive) | > 100 µM (inactive) | > 100 µM (inactive) |  | > 100 µM (inactive) | > 100 µM (inactive) | > 100 µM (inactive) | > 100 µM (inactive) | > 100 µM (inactive) | > 100 µM (inactive) | > 100 µM (inactive) | > 100 µM (inactive) | > 100 µM (inactive) | > 100 µM (inactive) | > 100 µM (inactive) |  | > 100 µM (inactive) | > 100 µM (inactive) | > 100 µM (inactive)
8 | CCCC(=O)Nc1cc(/C=C/C(=O)N2C[C@H]3C[C@@]34C2=CC(=O)c2[nH]cc(C)c24)n(C)c1 | < 0.0025 µM (active) | < 0.0025 µM (active) | < 0.0025 µM (active) |  | < 0.0025 µM (active) | < 0.0025 µM (active) | < 0.0025 µM (active) | < 0.0025 µM (active) | < 0.0025 µM (active) | < 0.0025 µM (active) | 0.00401 µM (active) | < 0.0025 µM (active) | < 0.0025 µM (active) | < 0.0025 µM (active) | 0.00403 µM (active) |  | 0.00273 µM (active) | < 0.0025 µM (active) | < 0.0025 µM (active)
9 | NC(=O)NNCc1c(-c2ccccc2)no[n+]1[O-] | > 100 µM (inactive) | > 100 µM (inactive) | > 100 µM (inactive) |  | > 100 µM (inactive) | > 100 µM (inactive) | > 100 µM (inactive) | > 100 µM (inactive) | > 100 µM (inactive) | > 100 µM (inactive) | > 100 µM (inactive) | > 100 µM (inactive) | > 100 µM (inactive) | > 100 µM (inactive) | > 100 µM (inactive) |  | > 100 µM (inactive) | > 100 µM (inactive) | > 100 µM (inactive)
10 | CSc1ncc2c(C#N)c3sc4ccccc4n3c(=O)c2n1 | > 100 µM (inactive) | > 100 µM (inactive) | > 100 µM (inactive) |  | > 100 µM (inactive) | > 100 µM (inactive) | > 100 µM (inactive) | 26.1 µM (inactive) | > 100 µM (inactive) | 40.1 µM (inactive) | 80.7 µM (inactive) | 22 µM (inactive) | 61.1 µM (inactive) | > 100 µM (inactive) | > 100 µM (inactive) |  | 24.6 µM (inactive) | 19.6 µM (inactive) | 91.8 µM (inactive)
11 | N/C(=N\c1ccc(Cl)cc1)NS(=O)(=O)c1ccc(S(=O)(=O)c2ccccc2)s1 | 12.9 µM (inactive) | 15.4 µM (inactive) | 19.7 µM (inactive) |  | 17.9 µM (inactive) | 18 µM (inactive) | 17.7 µM (inactive) | 20 µM (inactive) | 53.8 µM (inactive) | 22.7 µM (inactive) | 38.7 µM (inactive) | 19 µM (inactive) | 21.2 µM (inactive) | 14.8 µM (inactive) | 16.6 µM (inactive) |  | 24 µM (inactive) | 24.8 µM (inactive) | 17 µM (inactive)
12 | O=C(NC(Cc1c[nH]c2ccccc12)C(=O)Nc1ccc(Br)cc1)OCc1ccccc1 (centres undefined) | 6.59 µM (inactive) | 9.82 µM (inactive) | 5.18 µM (inactive) |  | 11.8 µM (inactive) | 4.53 µM (inactive) | 11.8 µM (inactive) | 13.6 µM (inactive) | 9.33 µM (inactive) | 15.3 µM (inactive) | 14.1 µM (inactive) | 16 µM (inactive) | 14.9 µM (inactive) | 11.3 µM (inactive) | 9.1 µM (inactive) |  | 18.9 µM (inactive) | 6.95 µM (inactive) | 10 µM (inactive)
13 | COc1cc2c(cc1C)NC(=O)/C2=C/c1c(Cl)n(-c2ccccc2)c2ccccc12 | 17.5 µM (inactive) | 13.4 µM (inactive) | 23 µM (inactive) |  | 27.4 µM (inactive) | 4.82 µM (inactive) | 16.4 µM (inactive) | 23.4 µM (inactive) | 11.2 µM (inactive) | 11.1 µM (inactive) | 24.4 µM (inactive) | 13.9 µM (inactive) | 28.9 µM (inactive) | 20.5 µM (inactive) | 49.2 µM (inactive) |  | 20 µM (inactive) | 6.12 µM (inactive) | 4.54 µM (inactive)
14 | O=C(NCCCCCCCN1CCCCCCC1)C(C1CCCCC1)C1CCCCC1 | 4.4 µM (inactive) | 7.66 µM (inactive) | 9.06 µM (inactive) |  | 2.01 µM (inactive) | 1.19 µM (inactive) | 12.9 µM (inactive) | 12.3 µM (inactive) | 5.61 µM (inactive) | 11.2 µM (inactive) | 11.3 µM (inactive) | 12.1 µM (inactive) | 12.9 µM (inactive) | 2.09 µM (inactive) | 9.53 µM (inactive) |  | 21.7 µM (inactive) | 2.34 µM (inactive) | 6.05 µM (inactive)
15 | COc1ccc(-c2cc(=O)c3c(OC)c(OC)c(OC)c(OC)c3o2)c(OC)c1 | 29.2 µM (inactive) | 21.6 µM (inactive) | 14 µM (inactive) |  | 21 µM (inactive) | 26.4 µM (inactive) | 16.9 µM (inactive) | 21.9 µM (inactive) | 36.7 µM (inactive) | 61.4 µM (inactive) | 39.8 µM (inactive) | 31.1 µM (inactive) | 37.2 µM (inactive) | 20 µM (inactive) | 20.6 µM (inactive) |  | 18 µM (inactive) | > 100 µM (inactive) | 8.65 µM (inactive)
16 | CCCCCN(CCCCC)C(=O)[C@H](CCC(=O)OCc1ccccc1)NC(=O)c1cc2ccccc2[nH]1 | > 100 µM (inactive) | > 100 µM (inactive) | > 100 µM (inactive) | > 100 µM (inactive) | > 100 µM (inactive) | > 100 µM (inactive) | > 100 µM (inactive) | > 100 µM (inactive) | > 100 µM (inactive) | > 100 µM (inactive) | > 100 µM (inactive) | > 100 µM (inactive) |  | > 100 µM (inactive) | > 100 µM (inactive) | > 100 µM (inactive) |  |  | 
